Assay results reported in US20070117770A1, “Human ribosomal DNA (rDNA) and ribosomal RNA (rRNA) nucleic acids and uses thereof” (Cylene Pharmaceuticals, Inc., priority 2005, published 2007).

How the values were obtained:
Test in all cases: Protein kinase inhibition assay
Type in all cases: biochemical
[1] = target: BrSK1(h) (Homo sapiens, UniProt Q8TDC3); settings: read-out: percent residual activity of BrSK1(h)
Protocol: (§1) Certain compounds were tested for activity in protein kinase inhibition assays. All substrates were dissolved and diluted to working stocks in de-ionized water, apart from histone H1 (10× working stock in 20 mM MOPS pH 7.0), PDKtide (10× working stock in 50 mM Tris pH 7.0) ATF2 (which is typically stored at a 20× working stock in 50 mM Tris pH 7.5, 150 mM NaCl, 0.1 mM EGTA, 0.03% Brij-35, 50% glycerol, 1 mM benzamidine, 0.2 mM PMSF and 0.1% R-mercaptoethanol), KKLNRTLSFAEPG (SEQ ID NO:203) and RRRLSFAEPG (SEQ ID NO:204) (50 mM HEPES pH 7.4) and GGEEEEYFELVKKKK (SEQ ID NO:205) (20 mM MOPS pH 7.0). All kinases were pre-diluted to a 10× working concentration prior to addition into the assay. The composition of the dilution buffer for each kinase is detailed below.

[2] = target: BrSK2(h) (Homo sapiens, UniProt Q8IWQ3); settings: read-out: percent residual activity of BrSK2(h)
Protocol: as §1

[3] = target: CDK9/cyclin T1(h) (Homo sapiens, UniProt P50750); settings: read-out: percent residual activity of CDK9/cyclin T1(h)
Protocol: as §1

[4] = target: CK1γ2(h) (Homo sapiens, UniProt P78368); settings: read-out: percent residual activity of CK1γ2(h)
Protocol: as §1

[5] = target: CK2α2(h) (Homo sapiens, UniProt P19784); settings: read-out: percent residual activity of CK2α2(h)
Protocol: as §1

[6] = target: CLK3(h) (Homo sapiens, UniProt P49761); settings: read-out: percent residual activity of CLK3(h)
Protocol: as §1

[7] = target: CaMKI(h) (Homo sapiens, UniProt Q14012); settings: read-out: percent residual activity of CaMKI(h)
Protocol: as §1

[8] = target: CaMKIIβ(h) (Homo sapiens, UniProt Q13554); settings: read-out: percent residual activity of CaMKIIβ(h)
Protocol: as §1

[9] = target: CaMKIIγ(h) (Homo sapiens, UniProt Q13555); settings: read-out: percent residual activity of CaMKIIγ(h)
Protocol: as §1

[10] = target: DCAMKL2(h) (Homo sapiens, UniProt Q8N568); settings: read-out: percent residual activity of DCAMKL2(h)
Protocol: as §1

[11] = target: EGFR(T790M)(h) (Homo sapiens, UniProt P00533, T790M); settings: read-out: percent residual activity of EGFR(T790M)(h)
Protocol: as §1

[12] = target: EGFR(T790M, L858R)(h) (Homo sapiens, UniProt P00533, L858R/T790M); settings: read-out: percent residual activity of EGFR(T790M, L858R)(h)
Protocol: as §1

[13] = target: EphA8(h) (Homo sapiens, UniProt P29322); settings: read-out: percent residual activity of EphA8(h)
Protocol: as §1

[14] = target: GRK6(h) (Homo sapiens, UniProt P43250); settings: read-out: percent residual activity of GRK6(h)
Protocol: as §1

[15] = target: LOK(h) (Homo sapiens, UniProt O94804); settings: read-out: percent residual activity of LOK(h)
Protocol: as §1

[16] = target: MARK1(h) (Homo sapiens, UniProt Q9P0L2); settings: read-out: percent residual activity of MARK1(h)
Protocol: as §1

[17] = target: MLK1(h) (Homo sapiens, UniProt P80192); settings: read-out: percent residual activity of MLK1(h)
Protocol: as §1

[18] = target: MRCKα(h) (Homo sapiens, UniProt Q5VT25); settings: read-out: percent residual activity of MRCKα(h)
Protocol: as §1

[19] = target: Mer(h) (Homo sapiens, UniProt Q12866); settings: read-out: percent residual activity of Mer(h)
Protocol: as §1

[20] = target: NEK3(h) (Homo sapiens, UniProt P51956); settings: read-out: percent residual activity of NEK3(h)
Protocol: as §1

[21] = target: PhKγ2(h) (Homo sapiens, UniProt P15735); settings: read-out: percent residual activity of PhKγ2(h)
Protocol: as §1

[22] = target: Rsk4(h) (Homo sapiens, UniProt Q9UK32); settings: read-out: percent residual activity of Rsk4(h)
Protocol: as §1

[23] = target: SRPK1(h) (Homo sapiens, UniProt Q96SB4); settings: read-out: percent residual activity of SRPK1(h)
Protocol: as §1

[24] = target: WNK2(h) (Homo sapiens, UniProt Q9Y3S1); settings: read-out: percent residual activity of WNK2(h)
Protocol: as §1

[25] = target: WNK3(h) (Homo sapiens, UniProt Q9BYP7); settings: read-out: percent residual activity of WNK3(h)
Protocol: as §1

[26] = target: cKit(D816H)(h) (Homo sapiens, UniProt P10721, D816H); settings: read-out: percent residual activity of cKit(D816H)(h)
Protocol: as §1

[27] = target: eEF-2K(h) (Homo sapiens, UniProt O00418); settings: read-out: percent residual activity of eEF-2K(h)
Protocol: as §1

Sequence of WNK2(h) (Q9Y3S1 whole entry): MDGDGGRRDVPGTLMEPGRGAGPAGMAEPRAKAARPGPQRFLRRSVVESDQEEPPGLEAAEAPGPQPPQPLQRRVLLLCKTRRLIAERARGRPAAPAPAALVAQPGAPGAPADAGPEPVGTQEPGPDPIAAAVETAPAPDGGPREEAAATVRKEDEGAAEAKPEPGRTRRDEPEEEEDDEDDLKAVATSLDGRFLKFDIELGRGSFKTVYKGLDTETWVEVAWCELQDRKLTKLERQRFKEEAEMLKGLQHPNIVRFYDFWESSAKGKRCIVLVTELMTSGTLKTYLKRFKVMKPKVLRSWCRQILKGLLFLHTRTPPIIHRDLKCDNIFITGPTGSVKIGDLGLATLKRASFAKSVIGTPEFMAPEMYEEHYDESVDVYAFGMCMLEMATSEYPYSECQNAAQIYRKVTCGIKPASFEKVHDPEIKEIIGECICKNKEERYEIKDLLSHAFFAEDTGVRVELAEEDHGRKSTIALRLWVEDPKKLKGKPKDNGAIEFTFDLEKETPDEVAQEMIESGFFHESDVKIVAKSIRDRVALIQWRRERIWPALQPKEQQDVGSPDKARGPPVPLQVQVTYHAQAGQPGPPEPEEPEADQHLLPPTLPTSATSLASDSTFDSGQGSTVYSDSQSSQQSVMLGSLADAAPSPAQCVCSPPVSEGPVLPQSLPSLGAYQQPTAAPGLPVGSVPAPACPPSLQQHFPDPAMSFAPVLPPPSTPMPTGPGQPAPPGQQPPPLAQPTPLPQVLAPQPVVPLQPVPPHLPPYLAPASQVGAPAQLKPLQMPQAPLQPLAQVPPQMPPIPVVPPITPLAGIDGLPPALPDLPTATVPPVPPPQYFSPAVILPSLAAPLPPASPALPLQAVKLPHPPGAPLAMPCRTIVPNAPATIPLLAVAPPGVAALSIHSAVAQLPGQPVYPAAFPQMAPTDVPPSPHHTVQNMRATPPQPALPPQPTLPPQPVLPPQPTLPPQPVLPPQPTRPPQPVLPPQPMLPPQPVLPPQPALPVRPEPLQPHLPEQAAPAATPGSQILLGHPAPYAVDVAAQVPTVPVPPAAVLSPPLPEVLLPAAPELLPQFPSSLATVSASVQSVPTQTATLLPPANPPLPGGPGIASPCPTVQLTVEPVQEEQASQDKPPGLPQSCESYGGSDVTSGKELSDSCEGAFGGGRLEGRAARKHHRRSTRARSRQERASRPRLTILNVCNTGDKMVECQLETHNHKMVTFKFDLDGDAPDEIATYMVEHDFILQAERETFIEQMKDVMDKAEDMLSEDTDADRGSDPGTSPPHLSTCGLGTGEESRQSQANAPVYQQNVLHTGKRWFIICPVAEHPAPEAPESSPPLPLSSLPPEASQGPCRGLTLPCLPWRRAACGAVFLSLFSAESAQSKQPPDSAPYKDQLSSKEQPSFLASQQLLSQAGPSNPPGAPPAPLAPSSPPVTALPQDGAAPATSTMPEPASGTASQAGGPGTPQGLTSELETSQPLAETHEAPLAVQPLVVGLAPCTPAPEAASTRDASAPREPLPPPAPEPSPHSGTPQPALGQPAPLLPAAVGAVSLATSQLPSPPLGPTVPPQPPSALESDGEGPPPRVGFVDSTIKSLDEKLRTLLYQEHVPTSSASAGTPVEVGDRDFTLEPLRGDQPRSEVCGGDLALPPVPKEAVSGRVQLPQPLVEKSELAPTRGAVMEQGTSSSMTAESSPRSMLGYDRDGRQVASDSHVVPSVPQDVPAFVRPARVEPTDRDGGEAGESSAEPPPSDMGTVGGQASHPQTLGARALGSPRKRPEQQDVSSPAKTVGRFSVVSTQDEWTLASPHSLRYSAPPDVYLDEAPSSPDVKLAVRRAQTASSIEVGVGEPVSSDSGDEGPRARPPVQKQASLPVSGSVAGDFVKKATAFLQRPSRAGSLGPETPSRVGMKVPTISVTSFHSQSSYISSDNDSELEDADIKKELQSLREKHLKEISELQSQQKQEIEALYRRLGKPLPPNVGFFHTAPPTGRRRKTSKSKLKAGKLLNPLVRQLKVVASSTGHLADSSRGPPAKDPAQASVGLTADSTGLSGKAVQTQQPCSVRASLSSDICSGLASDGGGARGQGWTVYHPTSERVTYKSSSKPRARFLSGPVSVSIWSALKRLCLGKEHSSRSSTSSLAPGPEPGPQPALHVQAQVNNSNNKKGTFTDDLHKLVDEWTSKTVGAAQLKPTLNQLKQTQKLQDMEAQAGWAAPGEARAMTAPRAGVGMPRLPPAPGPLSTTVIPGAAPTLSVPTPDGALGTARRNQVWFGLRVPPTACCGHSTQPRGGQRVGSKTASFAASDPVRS
Sequence of MRCKα(h) (Q5VT25 whole entry): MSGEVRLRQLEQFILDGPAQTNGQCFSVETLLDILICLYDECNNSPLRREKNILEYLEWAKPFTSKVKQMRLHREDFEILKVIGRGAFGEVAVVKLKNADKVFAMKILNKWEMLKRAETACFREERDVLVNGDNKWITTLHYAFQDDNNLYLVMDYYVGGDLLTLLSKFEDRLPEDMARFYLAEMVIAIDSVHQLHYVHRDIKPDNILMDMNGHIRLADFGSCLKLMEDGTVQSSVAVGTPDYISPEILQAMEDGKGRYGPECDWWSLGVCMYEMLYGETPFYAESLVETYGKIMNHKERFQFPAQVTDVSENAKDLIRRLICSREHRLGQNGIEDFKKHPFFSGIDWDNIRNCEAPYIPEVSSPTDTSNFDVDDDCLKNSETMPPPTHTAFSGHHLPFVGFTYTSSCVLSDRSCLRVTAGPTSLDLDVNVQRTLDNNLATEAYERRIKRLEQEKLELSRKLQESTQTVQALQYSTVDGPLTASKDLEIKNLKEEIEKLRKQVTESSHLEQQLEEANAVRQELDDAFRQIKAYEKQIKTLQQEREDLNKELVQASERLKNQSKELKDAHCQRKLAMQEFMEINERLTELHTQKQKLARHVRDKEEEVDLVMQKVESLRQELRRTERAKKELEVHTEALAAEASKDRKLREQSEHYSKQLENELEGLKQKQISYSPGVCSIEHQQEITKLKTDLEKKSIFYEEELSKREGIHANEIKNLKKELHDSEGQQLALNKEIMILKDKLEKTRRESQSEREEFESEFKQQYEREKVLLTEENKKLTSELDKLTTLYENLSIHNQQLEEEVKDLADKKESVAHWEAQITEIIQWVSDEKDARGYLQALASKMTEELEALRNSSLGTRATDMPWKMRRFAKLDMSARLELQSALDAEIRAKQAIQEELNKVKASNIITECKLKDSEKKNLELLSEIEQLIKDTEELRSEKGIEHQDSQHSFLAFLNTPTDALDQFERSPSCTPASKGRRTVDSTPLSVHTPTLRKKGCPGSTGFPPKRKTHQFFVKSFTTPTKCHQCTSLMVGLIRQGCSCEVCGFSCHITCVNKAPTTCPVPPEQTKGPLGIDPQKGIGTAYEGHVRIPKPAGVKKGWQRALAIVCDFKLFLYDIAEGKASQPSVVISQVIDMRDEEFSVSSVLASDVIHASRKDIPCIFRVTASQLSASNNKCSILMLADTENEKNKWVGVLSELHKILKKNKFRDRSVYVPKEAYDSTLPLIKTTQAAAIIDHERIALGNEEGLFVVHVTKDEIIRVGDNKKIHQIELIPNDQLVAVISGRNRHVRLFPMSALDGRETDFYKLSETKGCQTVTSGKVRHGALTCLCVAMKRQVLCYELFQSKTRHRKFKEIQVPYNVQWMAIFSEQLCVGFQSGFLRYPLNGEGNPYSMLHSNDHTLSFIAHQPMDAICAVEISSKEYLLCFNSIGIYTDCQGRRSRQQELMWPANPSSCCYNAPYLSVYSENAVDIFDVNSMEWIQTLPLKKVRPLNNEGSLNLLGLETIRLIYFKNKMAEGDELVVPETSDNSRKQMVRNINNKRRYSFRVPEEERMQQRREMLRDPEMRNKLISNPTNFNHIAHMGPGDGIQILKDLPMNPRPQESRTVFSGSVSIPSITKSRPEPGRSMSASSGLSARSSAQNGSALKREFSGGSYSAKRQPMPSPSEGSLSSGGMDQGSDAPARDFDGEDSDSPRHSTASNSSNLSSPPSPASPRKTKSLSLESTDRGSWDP
Sequence of SRPK1(h) (Q96SB4 whole entry): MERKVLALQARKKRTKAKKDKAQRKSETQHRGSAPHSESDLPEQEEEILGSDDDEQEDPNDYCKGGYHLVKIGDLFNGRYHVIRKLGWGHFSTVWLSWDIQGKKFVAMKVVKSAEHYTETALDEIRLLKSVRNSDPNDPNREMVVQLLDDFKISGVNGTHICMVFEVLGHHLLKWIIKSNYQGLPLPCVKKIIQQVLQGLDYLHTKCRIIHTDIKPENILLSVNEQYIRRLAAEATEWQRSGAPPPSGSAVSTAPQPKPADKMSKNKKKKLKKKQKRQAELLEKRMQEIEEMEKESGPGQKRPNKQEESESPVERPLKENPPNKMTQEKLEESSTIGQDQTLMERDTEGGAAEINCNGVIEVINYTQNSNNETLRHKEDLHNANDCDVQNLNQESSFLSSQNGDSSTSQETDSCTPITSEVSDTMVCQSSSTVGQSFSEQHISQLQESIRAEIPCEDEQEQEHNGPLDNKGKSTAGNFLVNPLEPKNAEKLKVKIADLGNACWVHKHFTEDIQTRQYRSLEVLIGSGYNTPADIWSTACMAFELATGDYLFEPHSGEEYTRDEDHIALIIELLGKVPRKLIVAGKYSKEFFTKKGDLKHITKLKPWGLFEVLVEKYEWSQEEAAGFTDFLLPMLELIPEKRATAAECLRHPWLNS
Sequence of CK1γ2(h) (P78368 whole entry): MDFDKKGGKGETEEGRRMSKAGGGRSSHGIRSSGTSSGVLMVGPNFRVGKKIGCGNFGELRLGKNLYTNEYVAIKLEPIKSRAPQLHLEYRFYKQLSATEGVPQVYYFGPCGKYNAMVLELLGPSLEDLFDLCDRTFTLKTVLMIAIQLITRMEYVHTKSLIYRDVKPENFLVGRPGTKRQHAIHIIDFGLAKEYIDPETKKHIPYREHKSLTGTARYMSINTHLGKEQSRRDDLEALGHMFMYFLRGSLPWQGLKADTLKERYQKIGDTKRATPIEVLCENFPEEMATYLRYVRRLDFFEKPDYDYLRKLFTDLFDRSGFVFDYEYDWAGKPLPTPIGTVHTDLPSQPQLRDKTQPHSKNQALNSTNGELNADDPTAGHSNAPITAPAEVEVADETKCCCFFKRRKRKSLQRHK

Row | remaining activity at 2.5 µM [1] [%] | remaining activity at 2.5 µM [2] [%] | remaining activity at 2.5 µM [3] [%] | remaining activity at 2.5 µM [4] [%] | remaining activity at 2.5 µM [5] [%] | remaining activity at 2.5 µM [6] [%] | remaining activity at 2.5 µM [7] [%] | remaining activity at 2.5 µM [8] [%] | remaining activity at 2.5 µM [9] [%] | remaining activity at 2.5 µM [10] [%] | remaining activity at 2.5 µM [11] [%] | remaining activity at 2.5 µM [12] [%] | remaining activity at 2.5 µM [13] [%] | remaining activity at 2.5 µM [14] [%] | remaining activity at 2.5 µM [15] [%] | remaining activity at 2.5 µM [16] [%] | remaining activity at 2.5 µM [17] [%] | remaining activity at 2.5 µM [18] [%] | remaining activity at 2.5 µM [19] [%] | remaining activity at 2.5 µM [20] [%] | Compound | other results
1 | 107 | 96 | 100 | 103 | 116 | 96 | 106 | 100 | 104 | 111 | 114 | 99 | 100 | 83 | 106 | 95 | 86 | 98 | 125 | 118 | CC(=O)N1CCN(c2ccc3c(=O)c(C(=O)NCCN4CCCC4)c4n(C)c5ccccc5n4c3n2)CC1 [Compound B-1] | remaining activity at 2.5 µM [21]: 118%; remaining activity at 2.5 µM [22]: 94%; remaining activity at 2.5 µM [23]: 99%; remaining activity at 2.5 µM [24]: 108%; remaining activity at 2.5 µM [25]: 120%; remaining activity at 2.5 µM [26]: 92%; remaining activity at 2.5 µM [27]: 98%
2 | 99 | 96 | 116 | 96 | 115 | 84 | 95 | 101 | 110 | 48 | 91 | 93 | 100 | 90 | 88 | 83 | 85 | 85 | 111 | 94 | CN1CCCC1CCNC(=O)c1cn2c3c(c(N4CCC(c5cnccn5)C4)c(F)cc3c1=O)Oc1cc3ccccc3cc1-2 (stereo not drawn) [Compound A-1] | remaining activity at 2.5 µM [21]: 46%; remaining activity at 2.5 µM [22]: 69%; remaining activity at 2.5 µM [23]: 91%; remaining activity at 2.5 µM [24]: 97%; remaining activity at 2.5 µM [25]: 98%; remaining activity at 2.5 µM [26]: 73%; remaining activity at 2.5 µM [27]: 96%
